Source: ChEMBL document CHEMBL1139752, “New rifabutin analogs: synthesis and biological activity against Mycobacterium tuberculosis” (2006)
Values after ≈ are worked out from the molar mass of the structure shown.

Key:
Format in all cases: functional
[1] = test system: Mycobacterium tuberculosis; test: Antimycobacterial activity against rifampicin and rifabutin resistant Mycobacterium tuberculosis
[2] = test system: Mycobacterium tuberculosis; test: Antimycobacterial activity against ethambutol resistant Mycobacterium tuberculosis ATCC 35837
[3] = test system: Mycobacterium tuberculosis; test: Antimycobacterial activity against streptomycin resistant Mycobacterium tuberculosis ATCC 35820
[4] = test system: Mycobacterium tuberculosis; test: Antimycobacterial activity against rifampicin and rifabutin resistant Mycobacterium tuberculosis ATCC 35838
[5] = test system: Mycobacterium tuberculosis; test: Antimycobacterial activity against isoniazid resistant Mycobacterium tuberculosis ATCC 35822

Compound | MIC [1] | MIC [2] | MIC [3] | MIC [4] | MIC [5]
CO[C@H]1/C=C/O[C@@]2(C)Oc3c(C)c(O)c4c(c3C2=O)C2=NC3(CCN(CC(C)C)CC3)NC2=C(NC(=O)/C(C)=C\C=C\[C@H](C)[C@H](O)[C@@H](C)[C@@H](O)[C@@H](C)[C@H](OC(C)=O)[C@@H]1C)C4=O [RIFABUTIN] | > 5 µg/mL | 0.02 µg/mL (≈ 0.0236 µM) | 0.02 µg/mL (≈ 0.0236 µM) | > 5 µg/mL | 0.02 µg/mL (≈ 0.0236 µM)
CO[C@H]1/C=C/O[C@@]2(C)Oc3c(C)c(O)c4c(c3C2=O)C2=N[C@@]3(C[C@@H](c5ccccc5)N[C@@H](c5ccccc5)C3)NC2=C(NC(=O)/C(C)=C\C=C\[C@H](C)[C@H](O)[C@@H](C)[C@H](O)[C@H](C)[C@H](OC(C)=O)[C@@H]1C)C4=O | 0.3 µg/mL (≈ 0.318 µM) | 0.02 µg/mL (≈ 0.0212 µM) | 0.02 µg/mL (≈ 0.0212 µM) | 0.5 µg/mL (≈ 0.53 µM) | 0.02 µg/mL (≈ 0.0212 µM)
CCCCN1[C@@H](c2ccccc2)C[C@@]2(C[C@H]1c1ccccc1)N=C1C(=C3NC(=O)/C(C)=C\C=C\[C@H](C)[C@H](O)[C@@H](C)[C@H](O)[C@H](C)[C@H](OC(C)=O)[C@H](C)[C@@H](OC)/C=C/O[C@@]4(C)Oc5c(C)c(O)c(c1c5C4=O)C3=O)N2 | > 1 µg/mL | 0.02 µg/mL (≈ 0.02 µM) | 0.02 µg/mL (≈ 0.02 µM) | 1 µg/mL (≈ 1 µM) | 0.02 µg/mL (≈ 0.02 µM)
C=CCN1[C@@H](c2ccccc2)C[C@@]2(C[C@H]1c1ccccc1)N=C1C(=C3NC(=O)/C(C)=C\C=C\[C@H](C)[C@H](O)[C@@H](C)[C@H](O)[C@H](C)[C@H](OC(C)=O)[C@H](C)[C@@H](OC)/C=C/O[C@@]4(C)Oc5c(C)c(O)c(c1c5C4=O)C3=O)N2 | > 1 µg/mL | 0.02 µg/mL (≈ 0.0203 µM) | 0.02 µg/mL (≈ 0.0203 µM) | > 1 µg/mL | 0.02 µg/mL (≈ 0.0203 µM)
CO[C@H]1/C=C/O[C@@]2(C)Oc3c(C)c(O)c4c(c3C2=O)C2=N[C@@]3(C[C@@H](c5ccc(F)cc5)N[C@@H](c5ccc(F)cc5)C3)NC2=C(NC(=O)/C(C)=C\C=C\[C@H](C)[C@H](O)[C@@H](C)[C@H](O)[C@H](C)[C@H](OC(C)=O)[C@@H]1C)C4=O | 0.3 µg/mL (≈ 0.306 µM) | 0.02 µg/mL (≈ 0.0204 µM) | 0.02 µg/mL (≈ 0.0204 µM) | 0.5 µg/mL (≈ 0.511 µM) | 0.02 µg/mL (≈ 0.0204 µM)
CO[C@H]1/C=C/O[C@@]2(C)Oc3c(C)c(O)c4c(c3C2=O)C2=N[C@]3(C[C@@H](c5ccccc5)N[C@@H](c5ccccc5)C3)NC2=C(NC(=O)/C(C)=C\C=C\[C@H](C)[C@H](O)[C@@H](C)[C@H](O)[C@H](C)[C@H](OC(C)=O)[C@@H]1C)C4=O | > 1 µg/mL | 0.02 µg/mL (≈ 0.0212 µM) | 0.02 µg/mL (≈ 0.0212 µM) | 1 µg/mL (≈ 1.06 µM) | 0.02 µg/mL (≈ 0.0212 µM)
COc1ccc([C@@H]2C[C@]3(C[C@H](c4ccc(OC)cc4)N2)N=C2C(=C4NC(=O)/C(C)=C\C=C\[C@H](C)[C@H](O)[C@@H](C)[C@H](O)[C@H](C)[C@H](OC(C)=O)[C@H](C)[C@@H](OC)/C=C/O[C@@]5(C)Oc6c(C)c(O)c(c2c6C5=O)C4=O)N3)cc1 | > 1 µg/mL | 0.02 µg/mL (≈ 0.0199 µM) | 0.02 µg/mL (≈ 0.0199 µM) | 1 µg/mL (≈ 0.997 µM) | 0.02 µg/mL (≈ 0.0199 µM)
C=CCCN1[C@@H](c2ccccc2)C[C@@]2(C[C@H]1c1ccccc1)N=C1C(=C3NC(=O)/C(C)=C\C=C\[C@H](C)[C@H](O)[C@@H](C)[C@H](O)[C@H](C)[C@H](OC(C)=O)[C@H](C)[C@@H](OC)/C=C/O[C@@]4(C)Oc5c(C)c(O)c(c1c5C4=O)C3=O)N2 | > 1 µg/mL | 0.02 µg/mL (≈ 0.0201 µM) | 0.02 µg/mL (≈ 0.0201 µM) | > 1 µg/mL | 0.02 µg/mL (≈ 0.0201 µM)
CO[C@H]1/C=C/O[C@@]2(C)Oc3c(C)c(O)c4c(O)c(c(/C=N/N5CCN(C)CC5)c(O)c4c3C2=O)NC(=O)/C(C)=C\C=C\[C@H](C)[C@H](O)[C@@H](C)[C@@H](O)[C@@H](C)[C@H](OC(C)=O)[C@@H]1C [RIFAMPIN] | > 5 µg/mL | 0.02 µg/mL (≈ 0.0243 µM) | 0.02 µg/mL (≈ 0.0243 µM) | > 5 µg/mL | 0.02 µg/mL (≈ 0.0243 µM)
